Experimental data: patent publication US11046716B2, “Beta-lactamase inhibitors” (priority 2015, dated 2021)

Experiments:
SHV-5 = biological target: T1, SHV-5 (Klebsiella pneumoniae, UniProt P0A3M1); test: β-lactamase enzyme inhibition assay, SHV-5 (cefotaxime substrate); assay type: biochemical
T1 construct: made in house; host or cells: E. coli BL21(DE3)
How it was run: (§1)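 Compounds are mixed with purified, untagged recombinant β-lactamase and held 15 min at 37 °C. Substrate is then added: nitrocefin (100 μM final) for OXA-1, imipenem for KPC-2, cefotaxime for SHV-5. Absorbance is followed immediately, and percent inhibition per concentration gives the IC50.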

KPC-2 = biological target: T2, KPC-2 (Klebsiella pneumoniae, UniProt Q9F663); test: β-lactamase enzyme inhibition assay, KPC-2 (imipenem substrate); assay type: biochemical; details: Class A; imipenem substrate, 300 nm; read-out: KPC-2
T2 construct: made in house; host or cells: E. coli BL21(DE3)
How it was run: as §1

VIM-2 = biological target: T3, VIM-2 (Escherichia coli, UniProt Q5U7L7); test: β-lactamase enzyme inhibition assay, VIM-2 (nitrocefin substrate); assay type: biochemical; details: Class B; nitrocefin substrate, 486 nm; read-out: VIM-2
T3 construct: made in house; host or cells: E. coli BL21(DE3)
How it was run: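 Nitrocefin hydrolysis (100 μM final, A486 read for 10 min) by purified VIM-2 after a 15-min, 37° C enzyme–inhibitor preincubation. IC50 is the concentration halving initial hydrolysis rate, derived from percent inhibition against no-inhibitor wells.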

AmpC = biological target: T4, AmpC (Enterobacter cloacae, UniProt P05364); test: β-lactamase enzyme inhibition assay, p99 AmpC (nitrocefin substrate); assay type: biochemical
T4 construct: made in house; host or cells: E. coli BL21(DE3)
How it was run: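 Compounds are mixed with purified, untagged recombinant β-lactamase and held 15 min at 37 °C. Substrate is then added. Absorbance is followed immediately, and percent inhibition per concentration gives the IC50.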

OXA-48 = OXA-48 (UniProt Q6XEC0); test: β-lactamase enzyme inhibition assay, Class D oxacillinase; assay type: biochemical; details: read-out: OXA-48
[1] = tested on: E. coli expressing the Class A Extended Spectrum Beta-Lactamase (ESBL) CTX-M-15; test: Broth microdilution MIC assay with ceftazidime, E. coli CTX-M-15; assay type: cell-based; details: Fixed CAZ (ceftazidime) 4 μg/mL; E. coli ESBL4 CTX-M-15
How it was run: (§2)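 CLSI broth microdilution in cation-adjusted Mueller Hinton broth measured growth of β-lactamase-expressing strains, grown 3-5 h beforehand. The β-lactam partner was held at 4 μg/ml final while test compound was titrated 2-fold from 16 to 0.125 μg/mL final. After 16-20 h at 37° C, the compound MIC was determined by eye.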

[2] = tested on: E. cloacae expressing the Class C P99; test: Broth microdilution MIC assay with ceftazidime, E. cloacae P99; assay type: cell-based; details: Fixed CAZ (ceftazidime) 4 μg/mL; E. cl. 144200 p99 AmpC
How it was run: as §2

[3] = tested on: K. pneumoniae expressing the Class A carbapenemase KPC-2; test: Broth microdilution MIC assay with meropenem, K. pneumoniae KPC-2; assay type: cell-based; details: Fixed Mero (meropenem) 4 μg/mL; K. p. 156319 KPC-3
How it was run: as §2

[4] = tested on: P. aeruginosa expressing the Class B carbapenemase VIM-2; test: Broth microdilution MIC assay with meropenem, P. aeruginosa VIM-2; assay type: cell-based; details: Fixed Mero (meropenem) 4 μg/mL; P. aerug. 2775 VIM-2
How it was run: as §2

[5] = tested on: K. pneumoniae expressing the class A carbapenemase KPC-2 and the class B carbapenemase VIM-4; test: Broth microdilution MIC assay with meropenem, K. pneumoniae KPC-2 and VIM-4; assay type: cell-based; details: Fixed Mero (meropenem) 4 μg/mL; K. p. A-1797 KPC-2 VIM-4
How it was run: as §2

[6] = tested on: K. pneumoniae producing the Class D carbapenemase OXA-48; test: Broth microdilution MIC assay with meropenem, K. pneumoniae OXA-48; assay type: cell-based; details: Fixed Mero (meropenem) 4 μg/mL; K. p. 11978 OXA-48
How it was run: as §2

T1 sequence (P0A3M1 22-286): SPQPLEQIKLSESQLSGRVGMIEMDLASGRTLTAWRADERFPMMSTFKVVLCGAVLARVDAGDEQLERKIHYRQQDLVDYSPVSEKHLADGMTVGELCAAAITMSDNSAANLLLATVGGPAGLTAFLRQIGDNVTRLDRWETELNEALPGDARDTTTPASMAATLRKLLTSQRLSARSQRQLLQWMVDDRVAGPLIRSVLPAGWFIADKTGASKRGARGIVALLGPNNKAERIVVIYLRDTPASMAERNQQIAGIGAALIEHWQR
T2 sequence (Q9F663 25-293, looked up): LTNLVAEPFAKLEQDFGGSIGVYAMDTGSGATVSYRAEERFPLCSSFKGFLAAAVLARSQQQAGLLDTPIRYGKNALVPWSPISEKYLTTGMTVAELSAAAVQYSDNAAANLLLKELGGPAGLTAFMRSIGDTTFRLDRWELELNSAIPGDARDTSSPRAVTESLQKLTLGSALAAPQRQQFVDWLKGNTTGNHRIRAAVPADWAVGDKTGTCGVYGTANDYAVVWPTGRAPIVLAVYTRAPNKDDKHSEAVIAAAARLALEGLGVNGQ
T4 sequence (P05364 21-381): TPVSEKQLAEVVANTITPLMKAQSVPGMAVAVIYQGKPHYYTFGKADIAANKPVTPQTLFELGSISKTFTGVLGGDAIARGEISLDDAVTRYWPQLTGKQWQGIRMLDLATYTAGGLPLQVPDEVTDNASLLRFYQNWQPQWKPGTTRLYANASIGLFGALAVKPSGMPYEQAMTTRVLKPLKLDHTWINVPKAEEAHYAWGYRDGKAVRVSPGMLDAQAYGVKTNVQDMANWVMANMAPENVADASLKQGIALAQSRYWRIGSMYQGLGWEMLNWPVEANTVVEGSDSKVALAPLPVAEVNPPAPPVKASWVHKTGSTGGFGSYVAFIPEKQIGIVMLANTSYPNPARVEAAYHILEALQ

Row | SMILES | IC50 (SHV-5) | IC50 (KPC-2) | IC50 (VIM-2) | IC50 (AmpC) | IC50 (OXA-48) | MIC (μg/mL) of Exemplary Compounds in presence of fixed β-lactams: E. coli ESBL4 CTX-M-15 [1] | MIC (μg/mL) of Exemplary Compounds in presence of fixed β-lactams: E. cl. 144200 p99 AmpC [2] | MIC (μg/mL) of Exemplary Compounds in presence of fixed β-lactams: K. p. 156319 KPC-3 [3] | MIC (μg/mL) of Exemplary Compounds in presence of fixed β-lactams: P. aerug. 2775 VIM-2 [4] | MIC (μg/mL) of Exemplary Compounds in presence of fixed β-lactams: K. p. A-1797 KPC-2 VIM-4 [5] | MIC (μg/mL) of Exemplary Compounds in presence of fixed β-lactams: K. p. 11978 OXA-48 [6]
1 | NCc1nnc(CC(=O)N[C@H]2Cc3cccc(C(=O)O)c3OB2O)[nH]1 [Example 23, (R)-3-(2-(5-(aminomethyl)-4H-1,2,4-triazol-3-yl)acetamido)-2-hydroxy-3,4-dihydro-2H-benzo[e][1,2]oxaborinine-8-carboxylic acid] | < 100 nM | < 100 nM | 100 to 1000 nM | < 100 nM | 100 to 1000 nM | C (C represents an MIC of <1 μg/mL) | C (C represents an MIC of <1 μg/mL) | C (C represents an MIC of <1 μg/mL) | C (C represents an MIC of <1 μg/mL) | B (B represents an MIC between 1 and 16 μg/mL inclusive) | B (B represents an MIC between 1 and 16 μg/mL inclusive)
2 | N=C(N)NCc1nc(CC(=O)N[C@H]2Cc3cccc(C(=O)O)c3OB2O)cs1 [Example 24, (R)-3-(2-(2-(guanidinomethyl)thiazol-4-yl)acetamido)-2-hydroxy-3,4-dihydro-2H-benzo[e][1,2]oxaborinine-8-carboxylic acid] | < 100 nM | < 100 nM | 100 to 1000 nM | < 100 nM | 100 to 1000 nM | C (C represents an MIC of <1 μg/mL) | C (C represents an MIC of <1 μg/mL) | B (B represents an MIC between 1 and 16 μg/mL inclusive) | B (B represents an MIC between 1 and 16 μg/mL inclusive) | B (B represents an MIC between 1 and 16 μg/mL inclusive) | B (B represents an MIC between 1 and 16 μg/mL inclusive)
3 | N#Cc1ncn(CC(=O)N[C@H]2Cc3cccc(C(=O)O)c3OB2O)n1 [Example 25, (R)-3-(2-(3-cyano-1H-1,2,4-triazol-1-yl)acetamido)-2-hydroxy-3,4-dihydro-2H-benzo[e][1,2]oxaborinine-8-carboxylic acid] | < 100 nM | < 100 nM | 100 to 1000 nM | < 100 nM | 100 to 1000 nM | C (C represents an MIC of <1 μg/mL) | C (C represents an MIC of <1 μg/mL) | B (B represents an MIC between 1 and 16 μg/mL inclusive) | B (B represents an MIC between 1 and 16 μg/mL inclusive) | A (A represents an MIC>16 μg/mL) | B (B represents an MIC between 1 and 16 μg/mL inclusive)
4 | CNCc1cn(CC(=O)N[C@H]2Cc3cccc(C(=O)O)c3OB2O)nn1 [Example 26, (R)-2-hydroxy-3-(2-(4-((methylamino)methyl)-1H-1,2,3-triazol-1-yl)acetamido)-3,4-dihydro-2H-benzo[e][1,2]oxaborinine-8-carboxylic acid] | < 100 nM | 100 to 1000 nM | < 100 nM | < 100 nM | 100 to 1000 nM | C (C represents an MIC of <1 μg/mL) | C (C represents an MIC of <1 μg/mL) | B (B represents an MIC between 1 and 16 μg/mL inclusive) | B (B represents an MIC between 1 and 16 μg/mL inclusive) | C (C represents an MIC of <1 μg/mL) | B (B represents an MIC between 1 and 16 μg/mL inclusive)
5 | CCN(CC)Cc1cn(CC(=O)N[C@H]2Cc3cccc(C(=O)O)c3OB2O)nn1 [Example 27, (R)-3-(2-(4-((diethylamino)methyl)-1H-1,2,3-triazol-1-yl)acetamido)-2-hydroxy-3,4-dihydro-2H-benzo[e][1,2]oxaborinine-8-carboxylic acid] | < 100 nM | < 100 nM | 100 to 1000 nM | < 100 nM | 100 to 1000 nM | C (C represents an MIC of <1 μg/mL) | C (C represents an MIC of <1 μg/mL) | B (B represents an MIC between 1 and 16 μg/mL inclusive) | B (B represents an MIC between 1 and 16 μg/mL inclusive) | B (B represents an MIC between 1 and 16 μg/mL inclusive) | B (B represents an MIC between 1 and 16 μg/mL inclusive)
6 | O=C(Cn1cc(-c2cccs2)nn1)N[C@H]1Cc2cccc(C(=O)O)c2OB1O [Example 28, (R)-2-hydroxy-3-(2-(4-(thiophen-2-yl)-1H-1,2,3-triazol-1-yl)acetamido)-3,4-dihydro-2H-benzo[e][1,2]oxaborinine-8-carboxylic acid] | < 100 nM | < 100 nM | 100 to 1000 nM | < 100 nM | 100 to 1000 nM | C (C represents an MIC of <1 μg/mL) | C (C represents an MIC of <1 μg/mL) | B (B represents an MIC between 1 and 16 μg/mL inclusive) | B (B represents an MIC between 1 and 16 μg/mL inclusive) | A (A represents an MIC>16 μg/mL) | B (B represents an MIC between 1 and 16 μg/mL inclusive)
7 | O=C(Cn1cc(-c2ccsc2)nn1)N[C@H]1Cc2cccc(C(=O)O)c2OB1O [Example 29, (R)-2-hydroxy-3-(2-(4-(thiophen-3-yl)-1H-1,2,3-triazol-1-yl)acetamido)-3,4-dihydro-2H-benzo[e][1,2]oxaborinine-8-carboxylic acid] | < 100 nM | < 100 nM | 100 to 1000 nM | < 100 nM | 100 to 1000 nM | C (C represents an MIC of <1 μg/mL) | C (C represents an MIC of <1 μg/mL) | B (B represents an MIC between 1 and 16 μg/mL inclusive) | B (B represents an MIC between 1 and 16 μg/mL inclusive) | B (B represents an MIC between 1 and 16 μg/mL inclusive) | B (B represents an MIC between 1 and 16 μg/mL inclusive)
